System: SF188 cells
Assay: Viability of glutamine-starved hypoxic SF188 cells (trypan blue dye exclusion)
Format: cell-based, human
Conditions: 0.5% O2, 48 h, glutamine-deficient medium supplemented with 7 mM dimethyl α-ketoglutarate
Procedure: In FIG. 2(A), SF188 cells were cultured for 24 h in complete medium equilibrated with either 21% O2 (Normoxia) or 0.5% O2 (Hypoxia). Culture medium was then removed from cells and analyzed for glutamine levels which were compared to the glutamine levels in fresh medium. Data are the mean±SEM of 3 independent experiments. […] Cells were cultured in complete medium equilibrated with 0.5% O2 for 24 h, followed by an additional 48 h at 0.5% O2 in either complete medium (+Gln), glutamine-deficient medium (−Gln), or glutamine-deficient medium supplemented with 7 mM dimethyl α-ketoglutarate (−Gln+αKG). All medium was pre-conditioned in 0.5% O2. Cell viability was determined by trypan blue dye exclusion. Data are the mean and range from 2 independent experiments. FIG. 2(C) depicts a model of the pathways for cit+4 and cit+5 production from [U-^13C]glutamine (glutamine+5). […] Cells were cultured for 24 h as in (A), followed by 4 h of culture in glutamine-deficient medium supplemented with 4 mM [U-^13C]glutamine. ^13C enrichment in cellular citrate was quantitated with GC-MS. […]
SF188 and RCC4 cells were cultured in Dulbecco's Modified Eagle's Medium (DMEM; Invitrogen 11965), 10% fetal bovine serum (FBS; Gemini Biosystems), 100 units/ml Penicillin, 100 ug/ml Streptomycin, 25 mM glucose, and 6 mM L-glutamine. […] Viability was determined by trypan blue exclusion. […]

Compound: COC(=O)CCC(=O)C(=O)OC [dimethyl α-ketoglutarate]
- cell viability upon glutamine withdrawal: rescued the defect in cell viability

Source: patent US20160033533A1, “2-HYDROXYGLUTARATE AS A BIOMARKER FOR CHRONIC HYPOXIA” (MEMORIAL SLOAN KETTERING CANCER CENTER, priority 2011, published 2016)
